How the values were obtained:
[1] = system: LNCaP spheroids
Experimental: (§1) prostate cancer cells. GAPDH was used as a loading control.
(§2) Spheroids were treated for 7 days with the indicated concentrations of each drug, stained with PI (1 mg/mL) for 30 min and […] was evaluated using the Celigo® imaging system. Results are expressed as mortality ratios as compared to untreated spheroids (set at 1). Each point represent s the m ean ± SEM of 3 […]
(§3) Mortality (ratio/control)
(§4) [Harmol Hydrochloride] (M)

[2] = system: VCaP spheroids
Experimental: as §1, §2, §3, §4

[3] = biological target: T1, mineralocorticoid receptor (MR) (Homo sapiens, UniProt P08235); test: Transactivation assay in HG5LN MR cells; assay type: cell-based; details: 16 h, 1 nM aldosterone, highest concentrations used (>1 µM)
T1 construct: expressed in transfected cells
T1 sequence (P08235 726-964 limits assumed): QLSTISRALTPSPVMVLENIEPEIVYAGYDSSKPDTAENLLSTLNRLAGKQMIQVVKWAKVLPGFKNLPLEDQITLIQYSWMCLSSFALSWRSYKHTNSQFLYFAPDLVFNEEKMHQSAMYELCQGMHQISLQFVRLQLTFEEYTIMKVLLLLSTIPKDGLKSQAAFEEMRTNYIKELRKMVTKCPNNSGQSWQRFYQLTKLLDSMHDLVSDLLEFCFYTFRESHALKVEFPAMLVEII
Excerpt: HG5LN MR and HG5LN PXR luciferase reporter cell lines were obtained by stable expression of individual ligand binding domains fused to GAL4 DNA binding domain in HG5LN (HeLa GAL4REx5-luciferase) cells, as previously described. HELN PR cells were obtained by stably expressing PR with the ERα DNA binding domain in HELN (HeLa ERE-luciferase) cells and HMLN GR cells were obtained by stable co-transfection of HeLa cells with a plasmid encoding for a glucocorticoid responsive gene (MMTV-Luc-SV-Neo) and a glucocorticoid receptor expressing plasmid, as previously described.
Agonistic activities were evaluated in HMLN GR, HELN PR, HG5LN MR, and HG5LN PXR cells, using dexamethasone 100 nM, R5020 100 nM, aldosterone 100 nM, and SR12813 3 μM as a positive control, respectively. […] RU486 was used as a control antagonist for GR and PR, and spironolactone for MR.
HMLN glucocorticoid receptor (GR), HG5LN mineralocorticoid receptor (MR), HELN progesterone receptor (PR) and HG5LN PXR cells were used to evaluate the antagonistic effect of the tested compounds on (A) the glucocorticoid receptor (GR), (B) the mineralocorticoid receptor (MR), (C) the progesterone receptor (PR) and (D) the agonistic activity towards the pregnane X receptor (PXR). […]

[4] = parameters: method as in PMID 20398925; details: cited from earlier work
[5] = system: VCaP cells; test: Spheroid growth (CellTiter-Glo), VCaP; details: 7 days, 1 nM R1881
Experimental: (§5) Spheroids were generated by seeding prostate cancer cells in non-adherent U-bottom 96-well plates in medium supplemented with 5% of charcoal stripped FBS. VCaP, LNCaP-FGC, DU145, or PC3 cells were seeded in duplicate at a density of 2000, 500, 600, and 600 cells per well, respectively. […] Cell death was first evaluated by the incubation of the spheroids with propidium iodide (1 mg/mL) for 30 min, and quantitation of red fluorescence was performed using a Celigo® imaging cytometer (Nexcelom Bioscience). […] Then, proliferation was assessed following cell lysis with the CellTiter-Glo® Luminescent Cell Viability Assay reagent (Promega, Charbonnière, France), according to the manufacturer protocol. Quantification of the luminescence was performed using a MicroBeta Wallac luminometer (PerkinElmer), and percent growth was calculated relative to DMSO treated cells.
(§6) Spheroids were treated for 7 days, and cell death was evaluated by propidium iodide staining and fluorescence quantification, using the Celigo imaging system. Growth inhibition was then assessed by cell lysis with CellTiter-Glo, and quantification of the luminescence using a MicroBeta Wallac luminometer. Percent growth was calculated relative to dimethyl sulfoxide (DMSO) treated cells (n = 3 ± SEM).

[6] = system: LNCaP cells; test: Spheroid growth (CellTiter-Glo), LNCaP; details: 7 days, 1 nM R1881
Experimental: as §5, §6

[7] = system: AR target genes TMPRSS2, FKBP5, PSA; test: RT-qPCR of AR target genes in VCaP cells; details: 3 µM, 24 h, 1 nM R1881
Experimental: (§7) LNCaP and VCaP cells were seeded in 6-well plates (10^6 and 2 × 10^6 cells per well, respectively) and, 48 h later, complete medium was replaced by charcoal-stripped medium with 5% FBS. Cells were then treated for 24 h with the tested compounds, and RNA extraction was performed using the Quick RNA Miniprep kit (Zymo-Research, Irvine, CA, USA), according to the manufacturer’s protocol. Reverse transcription was performed with 0.5 µg total RNA using the SuperScript III reverse transcriptase kit (ThermoFisher, Waltham, MA, USA), according to the manufacturer’s protocol, in a final volume of 20 µL. The levels of genes transcripts were measured by real time PCR using a LightCycler 480 system (Roche Life Science, Penzberg, Germany) in the presence of SYBRGreen (SYBR® Premix Ex Taq^tm) and the following primers: FKBP5, sense 5′-[sequence]-3′; antisense 5′-[sequence]-3′; PSA, sense 5′-[sequence]-3′; antisense 5′-[sequence]-3′; TMPRSS2, sense 5′-[sequence]-3′, antisense 5′-[sequence]-3′; GR, sense 5′-[sequence]-3′, antisense 5′-[sequence]-3′; HPRT, sense 5′-[sequence]-3′; antisense 5′-[sequence]-3′; GAPDH, sense 5′-[sequence]-3′; antisense 5′-[sequence]-3′. Expression levels were evaluated with the ΔΔCt method and were normalized to GAPDH. Results are expressed as mRNA expression, relative to control (untreated cells), and are the mean ± SEM of 3 independent experiments.

[8] = system: AR target genes TMPRSS2, FKBP5, PSA; test: RT-qPCR of AR target genes in LNCaP cells; details: 3 µM, 24 h, 1 nM R1881
Experimental: as §7

[9] = system: GR; test: GR expression (RT-qPCR and Western blot) in VCaP cells; details: 3 µM, 24 h, 1 nM R1881
Experimental: (§8) LNCaP and VCaP cells were seeded in 6-well plates (10^6 and 2 × 10^6 cells per well, respectively) and, 48 h later, complete medium was replaced by charcoal-stripped medium with 5% FBS. Cells were then treated for 24 h with the tested compounds, and RNA extraction was performed using the Quick RNA Miniprep kit (Zymo-Research, Irvine, CA, USA), according to the manufacturer’s protocol. Reverse transcription was performed with 0.5 µg total RNA using the SuperScript III reverse transcriptase kit (ThermoFisher, Waltham, MA, USA), according to the manufacturer’s protocol, in a final volume of 20 µL. The levels of genes transcripts were measured by real time PCR using a LightCycler 480 system (Roche Life Science, Penzberg, Germany) in the presence of SYBRGreen (SYBR® Premix Ex Taq^tm) and the following primers: FKBP5, sense 5′-[sequence]-3′; antisense 5′-[sequence]-3′; PSA, sense 5′-[sequence]-3′; antisense 5′-[sequence]-3′; TMPRSS2, sense 5′-[sequence]-3′, antisense 5′-[sequence]-3′; GR, sense 5′-[sequence]-3′, antisense 5′-[sequence]-3′; HPRT, sense 5′-[sequence]-3′; antisense 5′-[sequence]-3′; GAPDH, sense 5′-[sequence]-3′; antisense 5′-[sequence]-3′. Expression levels were evaluated with the ΔΔCt method and were normalized to GAPDH. Results are expressed as mRNA expression, relative to control (untreated cells), and are the mean ± SEM of 3 independent experiments. […]

[10] = system: GR; test: GR expression (RT-qPCR and Western blot) in LNCaP cells; details: 3 µM, 24 h, 1 nM R1881
Experimental: as §8

## CNC(=O)c1ccc(N2C(=S)N(c3ccc(C#N)c(C(F)(F)F)c3)C(=O)C2(C)C)cc1F [enzalutamide, reference compound]
[1]
  Cell death (propidium iodide positive cells) versus untreated spheroids: did not significantly affect the number of propidium iodide positive cells
[2]
  Cell death (propidium iodide positive cells) versus untreated spheroids: did not significantly affect the number of propidium iodide positive cells
[3]
  Antagonistic activity towards MR: small antagonistic activity
[4]
  Cmin required to saturate binding to AR: 10 to 30 µM
[5]
  Growth of VCaP spheroids: could inhibit the growth
[6]
  Growth of LNCaP spheroids: could inhibit the growth of VCaP and LNCaP cells, tough to a lesser extent
[7]
  R1881-mediated expression of AR target genes TMPRSS2, FKBP5, PSA: more pronounced for enzalutamide than for harmol hydrochloride
[8]
  R1881-mediated expression of AR target genes TMPRSS2, FKBP5, PSA: more pronounced for enzalutamide than for harmol hydrochloride
[9]
  Expression of GR at the mRNA and protein levels: neither harmol nor enzalutamide treatment could significantly alter the expression of GR
[10]
  Expression of GR at the mRNA and protein levels: neither harmol nor enzalutamide treatment could significantly alter the expression of GR

Source: publication PMC7349874, “High Content Screening Using New U2OS Reporter Cell Models Identifies Harmol Hydrochloride as a Selective and Competitive Antagonist of the Androgen Receptor” (Cells, 2020)
